In the supplement of paper PMC10307832:

Columns and labels:
Assay in all cases: relative viability (nuclei count vs DMSO), 5 days (fraction); higher = more cells survive
TPCA-1 + Pemetrexed = compound: C1=CC(=CC=C1C2=CC(=C(S2)NC(=O)N)C(=O)N)F [TPCA-1] + Nc1nc2[nH]cc(CCc3ccc(C(=O)N[C@@H](CCC(=O)O)C(=O)O)cc3)c2c(=O)[nH]1 [Pemetrexed] (partner 0.2 µM)
Outline: (§1)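 Lung cancer cell lines were pin-tool dosed in 1536-well plates on the day after seeding, with either a lone drug or a fixed anchor-drug dose plus five library-drug doses (not always all listed) in √10 steps. Nuclei were counted on 4× images after 5 days. Relative viability is the ratio of treated-well to vehicle-well nuclei counts, with each value a median of duplicate plates.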

Lestaurtinib + Lapatinib = compound: C[C@]12O[C@H](C[C@]1(O)CO)n1c3ccccc3c3c4c(c5c6ccccc6n2c5c31)CNC4=O [Lestaurtinib] + CS(=O)(=O)CCNCc1ccc(-c2ccc3ncnc(Nc4ccc(OCc5cccc(F)c5)c(Cl)c4)c3c2)o1 [Lapatinib] (partner 2 µM)
Outline: as §1

[1] = compound: C[C@]12O[C@H](C[C@]1(O)CO)n1c3ccccc3c3c4c(c5c6ccccc6n2c5c31)CNC4=O [Lestaurtinib] + Cc1cc(Nc2cc(N3CCN(C)CC3)nc(Sc3ccc(NC(=O)C4CC4)cc3)n2)n[nH]1 [Tozasertib] (partner 0.1 µM)
Outline: as §1

[2] = compound: C[C@]12O[C@H](C[C@]1(O)CO)n1c3ccccc3c3c4c(c5c6ccccc6n2c5c31)CNC4=O [Lestaurtinib] + CC(C)C[C@H](NC(=O)[C@H](Cc1ccccc1)NC(=O)c1cnccn1)B(O)O [Bortezomib] (partner 0.002 µM)
Outline: as §1

| Cell Line | relative viability (TPCA-1 + Pemetrexed; first compound 0.04 µM) | relative viability (TPCA-1 + Pemetrexed; first compound 0.1265 µM) | relative viability (TPCA-1 + Pemetrexed; first compound 0.4 µM) | relative viability (TPCA-1 + Pemetrexed; first compound 1.265 µM) | relative viability (TPCA-1 + Pemetrexed; first compound 4 µM) | relative viability (Lestaurtinib + Lapatinib; first compound 0.005 µM) | relative viability (Lestaurtinib + Lapatinib; first compound 0.01581 µM) | relative viability (Lestaurtinib + Lapatinib; first compound 0.05 µM) | relative viability (Lestaurtinib + Lapatinib; first compound 0.1581 µM) | relative viability (Lestaurtinib + Lapatinib; first compound 0.5 µM) | relative viability ([1]; first compound 0.005 µM) | relative viability ([1]; first compound 0.01581 µM) | relative viability ([1]; first compound 0.05 µM) | relative viability ([1]; first compound 0.1581 µM) | relative viability ([1]; first compound 0.5 µM) | relative viability ([2]; first compound 0.005 µM) | relative viability ([2]; first compound 0.01581 µM) | relative viability ([2]; first compound 0.05 µM) | relative viability ([2]; first compound 0.1581 µM) | relative viability ([2]; first compound 0.5 µM) |
| --- | --- | --- | --- | --- | --- | --- | --- | --- | --- | --- | --- | --- | --- | --- | --- | --- | --- | --- | --- | --- |
| NCI-H2170 | 0.273 | 0.34 | 0.288 | 0.28 | 0.265 | 0.267 | 0.248 | 0.273 | 0.238 | 0.201 | 0.72 | 0.848 | 0.696 | 0.45 | 0.219 |  |  |  |  |  |
| HCC-366 |  | 0.17 | 0.155 | 0.116 | 0.145 | 1.16 | 1.16 | 0.79 | 1 | 0.0272 | 0.174 | 0.126 | 0.142 | 0.0841 | 0.072 | 1.13 | 1.11 | 0.565 | 1.05 | 0.43 |
| NCI-H2347 | 0.385 | 0.419 | 0.417 | 0.385 | 0.424 | 0.938 | 0.968 | 0.871 | 0.65 | 0.613 | 1.15 | 0.64 | 0.493 | 0.412 | 0.537 | 0.871 | 1.49 | 1.17 | 0.961 | 0.797 |
| COR-L 105 | 1.02 | 0.931 | 1.23 | 1.03 | 0.777 | 0.358 | 0.389 | 0.289 | 0.304 | 0.256 | 0.406 | 0.355 | 0.35 | 0.31 | 0.268 | 0.893 | 0.665 | 0.706 | 0.521 | 0.253 |
| 201T | 0.363 | 0.298 | 0.337 | 0.282 | 0.304 | 1.05 | 1.08 | 1.04 | 1.2 | 0.961 | 1 | 0.984 | 1.05 | 0.955 | 0.354 | 1.17 | 1.12 | 1.17 | 1.24 | 0.937 |
| NCI-H2126 | 0.636 | 0.607 | 0.679 | 0.508 | 0.524 | 0.821 | 0.901 | 0.613 | 0.81 | 0.552 | 0.919 | 0.963 | 0.802 | 0.699 | 0.48 | 1.19 | 1.11 | 0.957 | 1.17 | 0.861 |
| LC-2-ad | 0.262 | 0.299 | 0.27 | 0.283 | 0.206 | 1.17 | 1.07 | 0.62 | 0.266 | 0.19 | 0.441 | 0.498 | 0.442 | 0.393 | 0.289 | 0.966 | 1.2 | 0.882 | 0.407 | 0.329 |
| NCI-H2085 |  | 0.864 | 0.918 | 0.872 | 0.634 | 0.812 | 0.89 | 0.871 | 0.667 | 0.433 | 0.828 | 0.83 | 0.75 | 0.882 | 0.56 | 1 | 0.969 | 0.973 | 1.33 | 0.803 |
| NCI-H358 | 0.187 | 0.167 | 0.162 | 0.156 | 0.167 | 0.466 | 0.423 | 0.374 | 0.268 | 0.279 | 0.103 | 0.0848 | 0.0849 | 0.0845 | 0.0896 |  |  |  |  |  |
| H3255 | 0.577 | 0.487 | 0.58 | 0.484 | 0.493 | 0.2 | 0.175 | 0.243 | 0.18 | 0.112 | 0.611 | 0.884 | 0.633 | 0.587 | 0.5 | 0.773 | 0.982 | 0.648 | 0.903 | 0.351 |
| NCI-H2228 | 0.364 | 0.322 | 0.319 | 0.316 | 0.306 | 0.892 | 0.95 | 0.376 | 0.281 | 0.256 | 0.178 | 0.23 | 0.257 | 0.219 | 0.163 | 0.994 | 0.805 | 0.629 | 0.476 | 0.185 |
| CAL-12T | 1.12 | 0.968 | 1.17 | 1.09 | 0.828 | 0.671 | 0.649 | 0.537 | 0.384 | 0.246 | 0.32 | 0.44 | 0.333 | 0.37 | 0.332 | 0.806 | 1.27 | 0.888 | 0.794 | 0.618 |
| A-427 | 1.01 | 0.918 | 1.11 | 1.05 | 0.388 | 1.03 | 1.06 | 1 | 0.711 | 0.225 | 0.199 | 0.206 | 0.183 | 0.159 | 0.144 | 0.98 | 1.05 | 0.835 | 0.446 | 0.212 |
| HARA | 0.242 | 0.226 | 0.226 | 0.198 | 0.223 | 0.795 | 0.748 | 0.738 | 0.68 | 0.369 | 0.126 | 0.106 | 0.111 | 0.108 | 0.102 | 1.21 | 1.33 | 1 | 0.671 | 0.179 |
| NCI-H1793 | 0.97 | 0.709 | 0.921 | 0.963 | 0.249 | 0.927 | 0.907 | 0.467 | 0.441 | 0.235 | 0.335 | 0.279 | 0.347 | 0.265 | 0.255 |  |  |  |  |  |
| NCI-H1623 |  |  |  |  |  |  |  |  |  |  | 0.42 | 0.722 | 0.415 | 0.418 | 0.424 |  |  |  |  |  |
| NCI-H2009 | 1.07 | 0.979 | 1 | 1.11 | 0.99 | 0.959 | 0.942 | 0.807 | 0.755 | 0.15 | 0.783 | 0.832 | 0.625 | 0.454 | 0.359 | 1.01 | 0.967 | 0.801 | 0.755 | 0.167 |
